# Measured values as given in patent US6127342A, “Method for preventing or treating a lung disease caused by active oxygen and free radical injury” (Teijin Limited, priority 1991, dated 2000).
# What was measured:
# Type in all cases: in vivo
# [1] = system: liver tissue mitochondria; assay: Liver tissue mitochondrial function in liver ischemia-reperfusion; conditions: rat, 50 mg/kg i.v. before ischemia, FIGS. 2A and 2B
# Protocol: (§1) Male Wister rats weighing 250-300 g were fasted with free access to water 24 hours before the experiment. Seventy-two rats were divided into three groups of 24 animals each, i.e., the control group, the GSH administration group and the γ-GCE-administration group. Each rat was anesthetized by intraperitoneal administration of 40 mg/0.8 ml/kg of sodium pentobarbital, and the femoral vein was cannulated. In the GSH group and the γ-GCE group, 50 mg/kg of GSH or γ-GCE respectively were administered intravenously. Physiological saline was then infused for volume replacement in each group, as a continuous intravenous infusion at a rate of 0.8 ml/hr with an injection pump throughout the experiment. Thirty minutes after starting injection of physiological saline, the abdomon was opened by a midline incision and the liver hilus was exposed. According to the method described by Hasselgren, et al. in J. Surg. Res., Vol. 34, pp. 409-414, 1984, all vessels to the left and median lobes of the liver, more specifically, hepatic artery, portal vein and the bile duct, were clamped to produce an ischemic state for 2 hours. Since blood vessels to the remaining parts of the liver were not occluded by this method, poral stasis could be avoided which was of special relevance for circulation stability in rats. Thereafter, occlusion of all vessels was released by removing the clamp to allow reperfusion for 1 hour. The abdominal walls were closed during ischemia and reperfusion. […]
# (§2) Evaluation of ischemia-reperfusion injury was performed by measuring liver tissue (1) mitochondrial function, (2) glutathione concentration, (3) adenine nucleotides concentration, and (4) lipid peroxide concentration, as well as liver tissue derived (5) adenine nucleotides concentration in the hepatic vein immediately after starting reperfusion, and (6) liver cell enzyme activities in the blood after 1 hour of reperfusion. More specifically, the mitochondrial function in (1) was measured according to the method described by Chance, et al. in Adv. […] In addition, the quantitative determination of glutathione in (2) was performed using the same method as Experiment 1 on supernatant obtained by adding 10 vol/g of tissue weight of 2.5% (w/v) sulfosalicylic acid dihydrate aqueous solution to the liver tissue followed by homogenization and centrifugation. In addition, the quantitative determination of adenine nucleotides in (3) was performed by neutralizing the perchloric acid extract of the liver tissue with potassium hydroxide followed by removal of the precipitate and applying to an ion exchange HPLC column according to the method described by Sugino, et al. in J. Chromatogr., Vol. 361, pp. 427-431, 1986. […]
# [2] = system: liver ischemia-reperfusion model using rats; assay: Glutathione concentration in liver tissue during liver ischemia-reperfusion; conditions: rat, 50 mg/kg i.v.
# Protocol: (§3) Male Wister rats weighing 250-300 g were fasted with free access to water 24 hours before the experiment. Seventy-two rats were divided into three groups of 24 animals each, i.e., the control group, the GSH administration group and the γ-GCE-administration group. Each rat was anesthetized by intraperitoneal administration of 40 mg/0.8 ml/kg of sodium pentobarbital, and the femoral vein was cannulated. In the GSH group and the γ-GCE group, 50 mg/kg of GSH or γ-GCE respectively were administered intravenously. Physiological saline was then infused for volume replacement in each group, as a continuous intravenous infusion at a rate of 0.8 ml/hr with an injection pump throughout the experiment. Thirty minutes after starting injection of physiological saline, the abdomon was opened by a midline incision and the liver hilus was exposed. According to the method described by Hasselgren, et al. in J. Surg. Res., Vol. 34, pp. 409-414, 1984, all vessels to the left and median lobes of the liver, more specifically, hepatic artery, portal vein and the bile duct, were clamped to produce an ischemic state for 2 hours. Since blood vessels to the remaining parts of the liver were not occluded by this method, poral stasis could be avoided which was of special relevance for circulation stability in rats. Thereafter, occlusion of all vessels was released by removing the clamp to allow reperfusion for 1 hour. The abdominal walls were closed during ischemia and reperfusion.
# (§4) Using 18 rats in each group, the livers of 6 animals from each group were removed before ischemia, after 2 hours of ischemia, and after 1 hour of reperfusion, respectively. A portion of the liver from each animal was rapidly frozen in liquid nitrogen and used for measurement of glutathione,adenine nucleotides and lipid peroxide. From the remaining portion of the liver, mitochondria was immediately extracted according to the method described by Hogeboom and Schneider in the J. Biol. Chem., Vol. 172, p. 619, 1948. In other experiments, immediately after starting reperfusion, blood from the hepatic vein was collected using 6 rats from each group. These blood samples were then used to measure leaked adenine nucleotides. In addition, after 1 hour of said reperfusion, blood samples were also drawn, which were then used to measure the activity of the leaked liver cell enzymes.
# (§5) Evaluation of ischemia-reperfusion injury was performed by measuring liver tissue (1) mitochondrial function, (2) glutathione concentration, (3) adenine nucleotides concentration, and (4) lipid peroxide concentration, as well as liver tissue derived (5) adenine nucleotides concentration in the hepatic vein immediately after starting reperfusion, and (6) liver cell enzyme activities in the blood after 1 hour of reperfusion. More specifically, the mitochondrial function in (1) was measured according to the method described by Chance, et al. in Adv. Enzymol., Vol. 17, p. 65, 1956. In addition, the quantitative determination of glutathione in (2) was performed using the same method as Experiment 1 on supernatant obtained by adding 10 vol/g of tissue weight of 2.5% (w/v) sulfosalicylic acid dihydrate aqueous solution to the liver tissue followed by homogenization and centrifugation. In addition, the quantitative determination of adenine nucleotides in (3) was performed by neutralizing the perchloric acid extract of the liver tissue with potassium hydroxide followed by removal of the precipitate and applying to an ion exchange HPLC column according to the method described by Sugino, et al. in J. Chromatogr., Vol. 361, pp. 427-431, 1986. In addition, the measurement of lipid peroxide in (4) was performed according to the thiobarbiturate method described by Ohkawa, et al. in Anal. Biochem., Vol. 95, p. 351, 1979. […]
# [3] = system: coronary ischemia-reperfusion model using dogs; assay: Arrhythmia during coronary ischemia and reperfusion (electrocardiogram); conditions: dog
# Protocol: After anesthetizing 52 adult mongrel dogs of either sex weighing ca. 10 kg by intraperitoneal administration of 50 mg/kg of sodium pentobarbital, breathing tubes were immediately intubated endotracheally and artificial ventilation was continued using a Harvard ventilator. Electrocardiogram electrodes were attached, and monitoring and recording were continued throughout the experiment. Following insertion of cannulas in the right femoral vein and right femoral artery, the cannulas were used for continuous intravenous drip of physiological saline to replenish water or administration of the test preparation, and monitoring of arterial blood pressure, respectively. After performing left thoracotomy in the fourth or fifth intercostal space, the pericardium was torn to expose the heart. Ischemia was induced by ligating the left anterior descending coronary artery immediately distal to the first diagonal branch, while reperfusion was performed by subsequently removing that ligation.
# The animals were divided into four groups. Group 1 (n=9) was subjected to ischemia for 2 hours, group 2 (n=17) was subjected to ischemia for 2 hours followed by reperfusion for 1 hour, group 3 (n=10) was subjected to ischemia for 2 hours followed by reperfusion for 1 hour plus intravenous injection of 10 mg/kg of γ-GCE just before reperfusion, and group 4 (n=16) was subjected to 2 hours of ischemia followed by 1 hour of reperfusion plus intravenous injection of 10 mg/kg of reduced glutathione (GSH, control drug) just before reperfusion.
# Evaluation of arrhythmia was performed by analyzing the electrocardiogram to determine the presence of arrhythmia, or in other words, the number of ventricular premature beats, as well as the total duration of ventricular tachycardia, which was defined as more than three successive ventricular premature beats.
# [4] = system: liver ischemia-reperfusion model using rats; assay: Liver lipid peroxide concentration (thiobarbiturate method); conditions: rat; 50 mg/kg i.v.; after 1 hour reperfusion
# Protocol: Male Wister rats weighing 250-300 g were fasted with free access to water 24 hours before the experiment. Seventy-two rats were divided into three groups of 24 animals each, i.e., the control group, the GSH administration group and the γ-GCE-administration group. Each rat was anesthetized by intraperitoneal administration of 40 mg/0.8 ml/kg of sodium pentobarbital, and the femoral vein was cannulated. In the GSH group and the γ-GCE group, 50 mg/kg of GSH or γ-GCE respectively were administered intravenously. Physiological saline was then infused for volume replacement in each group, as a continuous intravenous infusion at a rate of 0.8 ml/hr with an injection pump throughout the experiment. Thirty minutes after starting injection of physiological saline, the abdomon was opened by a midline incision and the liver hilus was exposed. […]
# Evaluation of ischemia-reperfusion injury was performed by measuring liver tissue (1) mitochondrial function, (2) glutathione concentration, (3) adenine nucleotides concentration, and (4) lipid peroxide concentration, as well as liver tissue derived (5) adenine nucleotides concentration in the hepatic vein immediately after starting reperfusion, and (6) liver cell enzyme activities in the blood after 1 hour of reperfusion. More specifically, the mitochondrial function in (1) was measured according to the method described by Chance, et al. in Adv. […]
# [5] = system: liver ischemia-reperfusion model using rats; assay: Serum AST, ALT and LDH after 1 hour of reperfusion; conditions: rat; 50 mg/kg i.v.
# Protocol: as §3, §4, §5
# [6] = system: liver ischemia-reperfusion model using rats; assay: Adenine nucleotides in hepatic vein immediately after starting reperfusion; conditions: rat; 50 mg/kg i.v.
# Protocol: as §1, §2
# [7] = system: liver ischemia-reperfusion model using rats; assay: Adenine nucleotides concentration in liver tissue during liver ischemia-reperfusion; conditions: rat, 50 mg/kg i.v.
# Protocol: as §3, §4, §5
# [8] = 10 mg/kg i.v. just before reperfusion
# [9] = during 2 h ischemia, before the drug was given
compound,measurement,setting,value
"CCOC(=O)[C@H](CS)NC(=O)CC[C@H](N)C(=O)O [γ-GCE, γ-L-glutamyl-L-cysteine ethyl ester]",effect on recovery of liver mitochondrial function during reperfusion,[1]; 1 h reperfusion,significantly promoted recovery of mitochondrial function during reperfusion
same,effect on reduction of liver mitochondrial St. III O2 caused by ischemia,[1]; 2 h ischemia,significantly suppressed reduction of St. III O2 caused by ischemia
same,decrease of liver glutathione concentration throughout the experiment,[2],no significant decrease was observed throughout the experiment
same,"Liver tissue glutathione, GSH + GSSG, after 1 hour reperfusion",[2]; after 1 hour reperfusion,5.50 ± 0.26 μmol/g of liver wet weight
same,"Liver tissue glutathione, GSH, after 1 hour reperfusion",[2]; after 1 hour reperfusion,4.97 ± 0.25 μmol/g of liver wet weight
same,"Liver tissue glutathione, GSSG, after 1 hour reperfusion",[2]; after 1 hour reperfusion,0.54 ± 0.09 μmol/g of liver wet weight
same,"Liver tissue glutathione, GSH + GSSG, after 2 hours ischemia",[2]; after 2 hours ischemia,5.87 ± 0.43 μmol/g of liver wet weight
same,"Liver tissue glutathione, GSH, after 2 hours ischemia",[2]; after 2 hours ischemia,5.48 ± 0.42 μmol/g of liver wet weight
same,"Liver tissue glutathione, GSSG, after 2 hours ischemia",[2]; after 2 hours ischemia,0.39 ± 0.01 μmol/g of liver wet weight
same,"Liver tissue glutathione, GSH + GSSG, before ischemia",[2]; before ischemia,6.04 ± 0.35 μmol/g of liver wet weight
same,"Liver tissue glutathione, GSH, before ischemia",[2]; before ischemia,5.65 ± 0.30 μmol/g of liver wet weight
same,"Liver tissue glutathione, GSSG, before ischemia",[2]; before ischemia,0.39 ± 0.07 μmol/g of liver wet weight
same,liver glutathione concentration compared with control group or GSH administration group,[2]; throughout the experiment,significantly higher
same,"Number of Ventricular Premature Beats, 1 Hour of Reperfusion",[3]; [8],32 ± 30
same,"Total Duration of Ventricular Tachycardia, 1 Hour of Reperfusion",[3]; [8],3 ± 5 s
same,effect on total duration of ventricular tachycardia during reperfusion,[3]; [8],remarkably suppressed its increase during reperfusion
same,occurrence of arrhythmia (ventricular premature beats) during reperfusion,[3]; [8],strikingly suppressed
same,"Number of Ventricular Premature Beats, 2 Hours of Ischemia",[3]; [9],40 ± 51
same,"Total Duration of Ventricular Tachycardia, 2 Hours of Ischemia",[3]; [9],1 ± 2 s
same,Concentration of liver lipid peroxide following reperfusion,[4],6.56±0.6 nmol/mg protein
same,Serum ALT after 1 hour of reperfusion,[5],924 ± 330 IU/L
same,Serum AST after 1 hour of reperfusion,[5],2071 ± 625 IU/L
same,Serum LDH after 1 hour of reperfusion,[5],14678 ± 2763 IU/L
same,effect on leakage of liver cell enzymes into the blood following 1 hour of reperfusion,[5],significantly reduced leakage of enzymes from liver cells
same,Adenine nucleotides concentration in hepatic vein immediately after starting reperfusion,[6],1.96 ± 0.80 μmol/L serum
same,reduction of leakage of adenine nucleotides into the hepatic vein immediately after starting reperfusion,[6],over 50%
same,effect on restoration of liver ATP following reperfusion,[7]; 1 hour reperfusion,significantly promoted restoration of ATP following reperfusion
same,effect on the reduction of liver ATP caused by ischemia,[7]; 2 hours ischemia,did not show any effects on the reduction of ATP caused by ischemia
same,"Liver tissue ADP, after 1 hour reperfusion",[7]; after 1 hour reperfusion,0.38 μmol/g wet liver weight
same,"Liver tissue AMP, after 1 hour reperfusion",[7]; after 1 hour reperfusion,0.12 μmol/g wet liver weight
same,"Liver tissue ATP + ADP + AMP, after 1 hour reperfusion",[7]; after 1 hour reperfusion,2.21 μmol/g wet liver weight
same,"Liver tissue ATP, after 1 hour reperfusion",[7]; after 1 hour reperfusion,1.70 μmol/g wet liver weight
same,"Liver tissue ADP, after 2 hours ischemia",[7]; after 2 hours ischemia,0.17 μmol/g wet liver weight
same,"Liver tissue AMP, after 2 hours ischemia",[7]; after 2 hours ischemia,0.87 μmol/g wet liver weight
same,"Liver tissue ATP + ADP + AMP, after 2 hours ischemia",[7]; after 2 hours ischemia,1.10 μmol/g wet liver weight
same,"Liver tissue ATP, after 2 hours ischemia",[7]; after 2 hours ischemia,0.06 μmol/g wet liver weight
same,"Liver tissue ADP, before ischemia",[7]; before ischemia,0.57 μmol/g wet liver weight
same,"Liver tissue AMP, before ischemia",[7]; before ischemia,0.13 μmol/g wet liver weight
same,"Liver tissue ATP + ADP + AMP, before ischemia",[7]; before ischemia,3.39 μmol/g wet liver weight
same,"Liver tissue ATP, before ischemia",[7]; before ischemia,2.69 μmol/g wet liver weight
